Assay results from PubChem BioAssay AID2060513 (Molecular Pharmacology Branch, DTP, NCI, 2025).

System: 299254-011-R-J1-PDC complex spheroids viability
Assay: Anticancer human tumor 299254-011-R-J1-PDC patient-derived melanoma cell line growth inhibition [GQUAD]
Conditions: for IC50: curve of first compound; for viability, T/C: stronger effect = lower value; active = viability on the fitted dose curve at most 10% of control; inactive = the rest
How it was run: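 Tumor cells were grown as complex spheroids with HUVEC endothelial cells and mesenchymal stem cells as stroma. G-quadruplex stabilizers were combined with targeted agents over half-log dilutions from near the clinical Cmax, or from 10 microM.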

[1] = second compound 0.0316 µM, first compound 0.0316 µM
[2] = second compound 0.0316 µM, first compound 0.1 µM
[3] = second compound 0.0316 µM, first compound 0.316 µM
[4] = second compound 0.0316 µM, first compound 1 µM
[5] = second compound 0.0316 µM, first compound 3.16 µM
[6] = second compound 0.0316 µM, first compound 10 µM
[7] = second compound 0.1 µM, first compound 0.0316 µM
[8] = second compound 0.1 µM, first compound 0.1 µM
[9] = second compound 0.1 µM, first compound 0.316 µM
[10] = second compound 0.1 µM, first compound 1 µM
[11] = second compound 0.1 µM, first compound 3.16 µM
[12] = second compound 0.1 µM, first compound 10 µM
[13] = second compound 0.316 µM, first compound 0.0316 µM
[14] = second compound 0.316 µM, first compound 0.1 µM
[15] = second compound 0.316 µM, first compound 0.316 µM
[16] = second compound 0.316 µM, first compound 1 µM
[17] = second compound 0.316 µM, first compound 3.16 µM
[18] = second compound 0.316 µM, first compound 10 µM
[19] = second compound 1 µM, first compound 0.0316 µM
[20] = second compound 1 µM, first compound 0.1 µM
[21] = second compound 1 µM, first compound 0.316 µM
[22] = second compound 1 µM, first compound 1 µM
[23] = second compound 1 µM, first compound 3.16 µM
[24] = second compound 1 µM, first compound 10 µM
[25] = second compound 3.16 µM, first compound 0.0316 µM
[26] = second compound 3.16 µM, first compound 0.1 µM
[27] = second compound 3.16 µM, first compound 0.316 µM
[28] = second compound 3.16 µM, first compound 1 µM
[29] = second compound 3.16 µM, first compound 3.16 µM
[30] = second compound 3.16 µM, first compound 10 µM
[31] = second compound 10 µM, first compound 0.0316 µM
[32] = second compound 10 µM, first compound 0.1 µM
[33] = second compound 10 µM, first compound 0.316 µM
[34] = second compound 10 µM, first compound 1 µM
[35] = second compound 10 µM, first compound 3.16 µM
[36] = second compound 10 µM, first compound 10 µM
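Also: spheroids exposed to the agents for seven days before readout.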
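For viability, T/C in this document: percent viability relative to DMSO vehicle control wells = 100%.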

C#Cc1c(F)ccc2cc(O)cc(-c3ncc4c(N5CC6CCC(C5)N6)nc(OCC56CCCN5CC(F)C6)nc4c3F)c12 (stereo not given) + Cc1[nH]c2ccc(F)cc2c1-c1nc2c3cccnc3c3ncccc3c2[nH]1
> 10 µM: IC50 (second compound 0.0316 µM) | IC50 (second compound 0.1 µM) | IC50 (second compound 0.316 µM) | IC50 (second compound 1 µM) | IC50 (second compound 3.16 µM) | IC50 (second compound 10 µM)
inactive: viability, T/C [1] 109% | viability, T/C [2] 102% | viability, T/C [3] 87.9% | viability, T/C [4] 102% | viability, T/C [5] 90.8% | viability, T/C [6] 72.5% | viability, T/C [7] 83.1% | viability, T/C [8] 103% | viability, T/C [9] 103% | viability, T/C [10] 100% | viability, T/C [11] 103% | viability, T/C [12] 72.9% | viability, T/C [13] 89.4% | viability, T/C [14] 102% | viability, T/C [15] 88.8% | viability, T/C [16] 86.6% | viability, T/C [17] 111% | viability, T/C [18] 75.7% | viability, T/C [19] 129% | viability, T/C [20] 95.2% | viability, T/C [21] 116% | viability, T/C [22] 104% | viability, T/C [23] 86.6% | viability, T/C [24] 80.8% | viability, T/C [25] 102% | viability, T/C [26] 112% | viability, T/C [27] 97.2% | viability, T/C [28] 88.9% | viability, T/C [29] 114% | viability, T/C [30] 91.7% | viability, T/C [31] 87.2% | viability, T/C [32] 100% | viability, T/C [33] 98.4% | viability, T/C [34] 99.1% | viability, T/C [35] 105% | viability, T/C [36] 95.6%

CC(=O)O[C@H]1C(=O)[C@@]2(C)[C@H]([C@H](OC(=O)c3ccccc3)[C@]3(O)C[C@H](OC(=O)[C@H](O)[C@@H](NC(=O)c4ccccc4)c4ccccc4)C(C)=C1C3(C)C)[C@]1(OC(C)=O)CO[C@@H]1C[C@@H]2O + Cc1[nH]c2ccc(F)cc2c1-c1nc2c3cccnc3c3ncccc3c2[nH]1
0.531 µM: IC50 (second compound 3.16 µM)
0.274 µM: IC50 (second compound 0.1 µM)
0.445 µM: IC50 (second compound 0.316 µM)
0.448 µM: IC50 (second compound 0.0316 µM)
inactive: viability, T/C [1] 90.7% | viability, T/C [2] 82% | viability, T/C [3] 58.2% | viability, T/C [4] 31.2% | viability, T/C [5] 18% | viability, T/C [6] 15.5% | viability, T/C [7] 86.8% | viability, T/C [8] 94.6% | viability, T/C [9] 44.2% | viability, T/C [10] 35.9% | viability, T/C [11] 20.7% | viability, T/C [12] 13.9% | viability, T/C [13] 104% | viability, T/C [14] 86.1% | viability, T/C [15] 57.2% | viability, T/C [16] 33.4% | viability, T/C [17] 19.2% | viability, T/C [18] 17.3% | viability, T/C [19] 89.6% | viability, T/C [20] 92.6% | viability, T/C [21] 50.1% | viability, T/C [22] 43.1% | viability, T/C [23] 21.2% | viability, T/C [24] 17.4% | viability, T/C [25] 83.3% | viability, T/C [26] 84.2% | viability, T/C [27] 58.2% | viability, T/C [28] 38.7% | viability, T/C [29] 22.8% | viability, T/C [30] 21.6% | viability, T/C [31] 87.6% | viability, T/C [32] 84.5% | viability, T/C [33] 48.3% | viability, T/C [34] 40.3% | viability, T/C [35] 23.7% | viability, T/C [36] 22.8%
0.506 µM: IC50 (second compound 1 µM)
0.405 µM: IC50 (second compound 10 µM)

CC(C)(O)C1CCC(Nc2ccc3ncc(-c4cccc(C(F)(F)F)c4)n3n2)CC1 (stereo not given) + Cc1[nH]c2ccc(F)cc2c1-c1nc2c3cccnc3c3ncccc3c2[nH]1
2.55 µM: IC50 (second compound 10 µM)
> 10 µM: IC50 (second compound 0.0316 µM) | IC50 (second compound 0.1 µM) | IC50 (second compound 0.316 µM) | IC50 (second compound 1 µM) | IC50 (second compound 3.16 µM)
inactive: viability, T/C [1] 112% | viability, T/C [2] 109% | viability, T/C [3] 124% | viability, T/C [4] 97.2% | viability, T/C [5] 70.1% | viability, T/C [6] 111% | viability, T/C [7] 115% | viability, T/C [8] 98.2% | viability, T/C [9] 93.5% | viability, T/C [10] 103% | viability, T/C [11] 73.4% | viability, T/C [12] 111% | viability, T/C [13] 108% | viability, T/C [14] 117% | viability, T/C [15] 115% | viability, T/C [16] 109% | viability, T/C [17] 82.7% | viability, T/C [18] 99.4% | viability, T/C [19] 85.2% | viability, T/C [20] 109% | viability, T/C [21] 110% | viability, T/C [22] 104% | viability, T/C [23] 68.2% | viability, T/C [24] 105% | viability, T/C [25] 93% | viability, T/C [26] 102% | viability, T/C [27] 97% | viability, T/C [28] 88% | viability, T/C [29] 51% | viability, T/C [30] 65.3% | viability, T/C [31] 105% | viability, T/C [32] 95.9% | viability, T/C [33] 103% | viability, T/C [34] 88% | viability, T/C [35] 35.1% | viability, T/C [36] 47.6%

CCCS(=O)(=O)Nc1ccc(F)c(C(=O)c2c[nH]c3ncc(-c4ccc(Cl)cc4)cc23)c1F + Cc1[nH]c2ccc(F)cc2c1-c1nc2c3cccnc3c3ncccc3c2[nH]1
8.45 µM: IC50 (second compound 0.0316 µM)
8.51 µM: IC50 (second compound 0.1 µM)
7.74 µM: IC50 (second compound 3.16 µM)
8.05 µM: IC50 (second compound 0.316 µM)
inactive: viability, T/C [1] 91.6% | viability, T/C [2] 109% | viability, T/C [3] 109% | viability, T/C [4] 88.3% | viability, T/C [5] 76.8% | viability, T/C [6] 45.4% | viability, T/C [7] 98.6% | viability, T/C [8] 110% | viability, T/C [9] 100% | viability, T/C [10] 82.7% | viability, T/C [11] 105% | viability, T/C [12] 41.9% | viability, T/C [13] 86.6% | viability, T/C [14] 123% | viability, T/C [15] 110% | viability, T/C [16] 108% | viability, T/C [17] 90.7% | viability, T/C [18] 40.4% | viability, T/C [19] 94.8% | viability, T/C [20] 103% | viability, T/C [21] 84.1% | viability, T/C [22] 107% | viability, T/C [23] 79.7% | viability, T/C [24] 38.6% | viability, T/C [25] 91.4% | viability, T/C [26] 109% | viability, T/C [27] 92.3% | viability, T/C [28] 115% | viability, T/C [29] 82.6% | viability, T/C [30] 40.7% | viability, T/C [31] 81.3% | viability, T/C [32] 108% | viability, T/C [33] 101% | viability, T/C [34] 105% | viability, T/C [35] 88.8% | viability, T/C [36] 35.8%
7.38 µM: IC50 (second compound 10 µM)
7.26 µM: IC50 (second compound 1 µM)

O=c1[nH]cc(F)c(=O)[nH]1 + Cc1[nH]c2ccc(F)cc2c1-c1nc2c3cccnc3c3ncccc3c2[nH]1
> 10 µM: IC50 (second compound 0.0316 µM) | IC50 (second compound 0.1 µM) | IC50 (second compound 0.316 µM) | IC50 (second compound 1 µM) | IC50 (second compound 3.16 µM) | IC50 (second compound 10 µM)
inactive: viability, T/C [1] 131% | viability, T/C [2] 114% | viability, T/C [3] 113% | viability, T/C [4] 121% | viability, T/C [5] 116% | viability, T/C [6] 125% | viability, T/C [7] 120% | viability, T/C [8] 105% | viability, T/C [9] 110% | viability, T/C [10] 123% | viability, T/C [11] 98.3% | viability, T/C [12] 123% | viability, T/C [13] 104% | viability, T/C [14] 99.6% | viability, T/C [15] 119% | viability, T/C [16] 100% | viability, T/C [17] 97.5% | viability, T/C [18] 97.8% | viability, T/C [19] 88.3% | viability, T/C [20] 98.6% | viability, T/C [21] 106% | viability, T/C [22] 108% | viability, T/C [23] 116% | viability, T/C [24] 106% | viability, T/C [25] 99.3% | viability, T/C [26] 107% | viability, T/C [27] 96% | viability, T/C [28] 113% | viability, T/C [29] 90.4% | viability, T/C [30] 107% | viability, T/C [31] 96.4% | viability, T/C [32] 96.5% | viability, T/C [33] 92.1% | viability, T/C [34] 102% | viability, T/C [35] 98.9% | viability, T/C [36] 88%
